Consider 18 compounds from patent US7342027B2 (Yuhan Corporation, priority 2002, dated 2008).

Structures are written as SMILES. Where a name gives a salt, the structure may show the parent alone.

The experiment concerns the target T1, Recombinant human cathepsin K (Homo sapiens, UniProt P43235).
T1 construct: made in house
T1 sequence (P43235 115-329): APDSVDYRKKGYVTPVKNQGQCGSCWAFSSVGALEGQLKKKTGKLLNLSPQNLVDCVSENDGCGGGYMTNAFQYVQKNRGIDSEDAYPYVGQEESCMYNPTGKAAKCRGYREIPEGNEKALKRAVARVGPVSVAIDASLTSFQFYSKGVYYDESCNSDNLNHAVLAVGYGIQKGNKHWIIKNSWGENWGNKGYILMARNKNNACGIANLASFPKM
Kind of experiment: Inhibition of cathepsin K activity (Z-Phe-Arg-AMC fluorescence assay). The class given is biochemical. To be noted: 25 uM Z-Phe-Arg-AMC, pH 5.5, 1 hour at 37° C. The procedure, abridged: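 Z-Phe-Arg-AMC at 25 uM in 100 mM Na acetate pH 5.5 with 20 mM cysteine, 5 mM EDTA and 2% final DMSO; reaction started by adding enzyme, then 1 hour at 37° C. Fluorescence read at ex 360/em 460 nm; IC50 is the concentration giving 50% inhibition.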

A word on the IC50: it is the concentration needed to halve the response being measured. With `O=C(CCCCl)Nc1ccccc1N1CCC(NC(=O)C2(NC(=O)c3cc4ccccc4o3)CCCCC2)C(=O)C1` (stereo not drawn) [Example 50, 4-[N-[1-[N-(benzofuran-2-ylcarbonyl)amino]cyclohexanecarbonyl]amino]-1-[2-[N-(4-chlorobutyryl)amino]phenyl]piperidin-3-one], the IC50 came to 1.2 nM. For `CS(=O)(=O)c1ccccc1N1CCC(NC(=O)C2(NC(=O)c3ccc(Cl)s3)CCCCC2)C(=O)C1` (stereo not drawn) [Example 114, 4-[N-[1-[N-(5-chloro-thiophen-2-ylcarbonyl)amino]cyclohexanecarbonyl]amino]-1-(2-methanesulfonylphenyl)piperidin-3-one], the IC50 is 1.93 nM.

For the compound `O=C(NC1(C(=O)NC2CCN(c3ccccc3-c3ccco3)CC2=O)CCCCC1)c1cc2ccccc2o1` (stereo not drawn) [Example 34, 4-[N-[1-[N-(benzofuran-2-ylcarbonyl)amino]cyclohexanecarbonyl]amino]-1-[2-(2-furyl)phenyl]piperidin-3-one], the IC50 was 1.93 nM. The value for `CS(=O)(=O)c1ccccc1N1CCC(NC(=O)C2(NC(=O)c3cc4cc(OCCN5CCCC5)ccc4o3)CCCCC2)C(=O)C1` (stereo not drawn) [Example 165, 4-[N-[1-[N-(5-(2-pyrrolidinethoxy)benzofuran-2-ylcarbonyl)amino]cyclohexanecarbonyl]amino]-1-(2-methanesulfonylphenyl)piperidin-3-one hydrochloride] was 1.63 nM; that for `CS(=O)(=O)c1ccccc1N1CCC(NC(=O)C2(NC(=O)c3ccc(OCCN4CCCC4)cc3)CCCCC2)C(=O)C1` (stereo not drawn) [Example 156, 4-[N-[1-[N-(4-(2-pyrrolidinethoxy)benzoyl)amino]cyclohexanecarbonyl]amino]-1-(2-methanesulfonylphenyl)piperidin-3-one] was 1.9 nM; that for `CC(=O)c1ccccc1N1CCC(NC(=O)C2(NC(=O)c3cc4ccccc4o3)CCCCC2)C(=O)C1` (stereo not drawn) [Example 6, 4-[N-[1-[N-(benzofuran-2-ylcarbonyl)amino]cyclohexanecarbonyl]amino]-1-(2-acetylphenyl)piperidin-3-one] was 2.69 nM.

On to `O=C(NC1(C(=O)NC2CCN(c3ccc(F)cc3N3CCCC3=O)CC2=O)CCCCC1)c1ccco1` (stereo not drawn) [Example 95, 4-[N-[1-[N-(furan-2-ylcarbonyl)amino]cyclohexanecarbonyl]amino]-1-[4-fluoro-2-(pyrrolidin-2-one-1-yl)phenyl]piperidin-3-one], for which the IC50 turned out to be 10.8 nM. Under `CCSc1ccccc1N1CCC(NC(=O)C2(NC(=O)c3cc4ccccc4o3)CCCCC2)C(=O)C1` (stereo not drawn) [Example 42, 4-[N-[1-[N-(benzofuran-2-ylcarbonyl)amino]cyclohexanecarbonyl]amino]-1-(2-ethylthiophenyl)piperidin-3-one] stands 3.87 nM; under `CSc1cc(F)ccc1N1CCC(NC(=O)C2(NC(=O)c3ccco3)CCCCC2)C(=O)C1` (stereo not drawn) [Example 85, 4-[N-[1-[N-(furan-2-ylcarbonyl)amino]cyclohexanecarbonyl]amino]-1-(4-fluoro-2-thiomethoxyphenyl)piperidin-3-one], 10.4 nM. Under `CC(C)S(=O)(=O)c1ccccc1N1CCC(NC(=O)C2(NC(=O)c3ccc(Cl)s3)CCCCC2)C(=O)C1` (stereo not drawn) [Example 116, 4-[N-[1-[N-(5-chloro-thiophen-2-ylcarbonyl)amino]cyclohexanecarbonyl]amino]-1-(2-isopropanesulfonylphenyl)piperidin-3-one] stands 2.35 nM; under `O=Cc1ccccc1N1CCC(NC(=O)C2(NC(=O)c3cc4ccccc4o3)CCCCC2)C(=O)C1` (stereo not drawn) [Example 15, 4-[N-[1-[N-(benzofuran-2-ylcarbonyl)amino]cyclohexanecarbonyl]amino]-1-(2-formylphenyl)piperidin-3-one], 1.45 nM; under `CS(=O)(=O)c1ccc(N2CCC(NC(=O)C3(NC(=O)c4cc5ccccc5o4)CCCCC3)C(=O)C2)cc1` (stereo not drawn) [Example 5, 4-[N-[1-[N-(benzofuran-2-ylcarbonyl)amino]cyclohexanecarbonyl]amino]-1-(4-methanesulfonylphenyl)piperidin-3-one], 5.05 nM. Under `O=C(NC1(C(=O)NC2CCN(c3ccccc3NC(=O)C3CC3)CC2=O)CCCCC1)c1cc2ccccc2o1` (stereo not drawn) [Example 53, 4-[N-[1-[N-(benzofuran-2-ylcarbonyl)amino]cyclohexanecarbonyl]amino]-1-[2-[N-(cyclopropanecarbonyl)amino]phenyl]piperidin-3-one] stands 1.22 nM.

Turning to `CS(=O)(=O)c1ccccc1N1CCC(NC(=O)C2(NC(=O)c3cc4cc(OCCN5CCCC5)ccc4o3)CCCCC2)C(=O)C1` (stereo not drawn) [Example 162, 4-[N-[1-[N-(5-(2-pyrrolidinethoxy)benzofuran-2-ylcarbonyl)amino]cyclohexanecarbonyl]amino]-1-(2-methanesulfonylphenyl)piperidin-3-one], the IC50 turned out to be 0.45 nM.

With `CS(=O)(=O)c1ccccc1N1CCC(NC(=O)C2(NC(=O)c3cc4ccccc4s3)CCCCC2)C(=O)C1` (stereo not drawn) [Example 128, 4-[N-[1-[N-(benzothiophen-2-ylcarbonyl)amino]cyclohexanecarbonyl]amino]-1-(2-methanesulfonylphenyl)piperidin-3-one], the IC50 was 0.67 nM. Under `O=C(NC1(C(=O)NC2CCN(c3ccccc3-c3nnn[nH]3)CC2=O)CCCCC1)c1cc2ccccc2o1` (stereo not drawn) [Example 67, 4-[N-[1-[N-(benzofuran-2-ylcarbonyl)amino]cyclohexanecarbonyl]amino]-1-[2-(1H-tetrazol-5-yl)phenyl]piperidin-3-one] stands 4.77 nM. The value for `CS(=O)(=O)c1ccccc1N1CCC(NC(=O)C2(NC(=O)c3ccc(-c4ccccc4)cc3)CCCCC2)C(=O)C1` (stereo not drawn) [Example 153, 4-[N-[1-[N-(4-biphenylcarbonyl)amino]cyclohexanecarbonyl]amino]-1-(2-methanesulfonylphenyl)piperidin-3-one] was 0.36 nM; that for `CS(=O)(=O)c1ccccc1N1CCC(NC(=O)C2(NC(=O)c3ccc4ccccc4n3)CCCCC2)C(=O)C1` (stereo not drawn) [Example 136, 4-[N-[1-[N-(quinolin-2-ylcarbonyl)amino]cyclohexanecarbonyl]amino]-1-(2-methanesulfonylphenyl)piperidin-3-one] was 1.62 nM.
